Laboratory results: US20230181721A1 (priority 2020, published 2023)

Experiments:
HLA-A2.1 transgenic mice [1] = settings: mouse, in vivo
human PBMC = format: cell-based
HLA-A2.1 transgenic mice [2] = settings: mouse, in vivo; remark: listed apart in the source
HLA-A2.1 transgenic mice [3] = settings: mouse, in vivo; remark: listed apart in the source

Substance | tetramer response (HLA-A2.1 transgenic mice [1]) | Patient response (human PBMC) | Trm (response) (HLA-A2.1 transgenic mice [2]) | Trm response (HLA-A2.1 transgenic mice [2]) | ELIspot (YES/NO) (HLA-A2.1 transgenic mice [3])
LLLTILTSV [26_neoA] | medium | Yes | Yes | Yes | Yes
KLKDCVMYA [20_wt] | medium | – | – | Yes | No
KLSYGIATE [22_neoB] | high | – | – | No | No
RTMTWLDMI [37_neoB] | high | Yes | No | No | Yes
VVFLHVTYV [48_wt] | high | Yes | No | No | Yes
l_neoA (ALNTLVKQV) | high | Yes | Yes | Yes | Yes
QLEMELTPV [36_wt] | medium | Yes | Yes | Yes | No
MMISAGFSL [31_wt] | – | Yes | – | – | –
SAPGVFCGV [41_neoB] | high | YES | No | No | Yes
RLNQLESKV [39_neoA] | medium | – | – | Yes | No
FLLNKEMYL [8_wt] | medium | Yes | No | No | Yes
LALLLLDRL [23_wt] | medium | Yes | Yes | Yes | Yes
FMAGLIAIV [6_neoB] | medium | – | – | No | Yes
LVSAGIFGV [27_neoB] | high | Yes | Yes | Yes | Yes
VLFLHVTYV [48_neoA] | high | Yes | No | No | Yes
LLWLIINLV [28_neoA] | high | Yes | No | No | Yes
YLNSTNVTV [51_neoA] | high | – | – | Yes | Yes
LLSAGIFGV [27_neoA] | high | Yes | No | No | Yes
VLPTKLNDV [47_neoA] | medium | Yes | Yes | Yes | No
KLADYNYKV [19_neoA] | low | Yes | – | – | Yes
GLSRIGMEV [15_neoA] | high | – | – | No | No
WLMWLIINL [49_wt] | high | – | – | No | No
MLAKALRKV [30_wt] | high | Yes | No | No | Yes

Substance | tetramer response (HLA-A2.1 transgenic mice [1]) | Patient response (human PBMC) | Trm (response) (HLA-A2.1 transgenic mice [2]) | Trm response (HLA-A2.1 transgenic mice [2]) | ELIspot (YES/NO) (HLA-A2.1 transgenic mice [3])
GLMWLSYFV [14_neoA] | medium | Yes | No | No | Yes
GTSRIGMEV [15_neoB] | high | – | – | No | No
SAWALIISV [42_neoB] | high | Yes | Yes | Yes | Yes
VLMAPISAV [46_neoA] | medium | – | – | No | Yes
NLLKDCPAV [33_wt] | medium | – | – | No | Yes
RLNEVAKNV [38_neoA] | high | – | – | No | No
LLTGRLQSV [24_neoA] | high | – | – | No | Yes
YLMADLVYT [55_neoB] | medium | – | – | No | Yes
AVSKGVHFI [3_neoB] | medium | – | – | No | Yes
YLYALVYFV [54_neoA] | high | – | – | Yes | Yes
SLIAYTMSV [40_neoA] | medium | – | – | No | Yes
FLAGLIAIV [6_neoA] | high | Yes | Yes | Yes | Yes
VSFLHVTYV [48_neoB] | high | Yes | Yes | Yes | Yes
LLLPQGTTV [29_neoA] | medium | Yes | Yes | Yes | No
SMWALIISV [42_wt] | high | Yes | Yes | Yes | Yes
RLMTWLDMV [37_neoA] | high | Yes | No | No | Yes
ALSKGVHFV [3_wt] | medium | Yes | No | No | Yes
LLLDRLNQV [25_neoA] | medium | – | – | No | Yes
NLNESLIDL [34_wt] | medium | – | – | No | No
NLIDSYFVV [32_wt] | medium | Yes | Yes | Yes | Yes
FTAHIQWMV [7_neoB] | medium | – | – | No | Yes
CLEASFNYV [5_neoA] | medium | Yes | Yes | Yes | No
